Values joined by “and” are separate entries in the source; they are usually repeats but may differ in a detail not shown here. Equal values may be shown once.
Settings: for mass density: 407.69 K, Fluid (supercritical or subcritical phases), Bellows volumetry

CC(C)C [2-methylpropane]
Settings | mass density
3627.5 kPa | 203.1 kg/m3
3629.3 kPa | 205.78 kg/m3
3631.2 kPa | 208.58 kg/m3
3632.8 kPa | 211.59 kg/m3
3634 kPa | 214.88 kg/m3
3634.8 kPa | 218.47 kg/m3
3635.3 kPa | 222.42 kg/m3
3635.4 kPa | 223.5 kg/m3
3635.7 kPa | 225.57 kg/m3 and 226.64 kg/m3
3636.3 kPa | 228.77 kg/m3
3637 kPa | 230.86 kg/m3
3638.4 kPa | 235.26 kg/m3
3639.6 kPa | 239.96 kg/m3
3641.1 kPa | 244.93 kg/m3

Settings | Critical temperature [K]
Liquid, Visual observation in a stirred cell | 407.69
